Reference: patent US20120003270A1, “6-SUBSTITUTED ISOFLAVONOID COMPOUNDS AND USES THEREOF” (priority 2008, published 2012)

Assays:
iNOS = experiment: NO synthesis in LPS-stimulated RAW 264.7 (Griess); assay type: cell-based, mouse; settings: LPS 50 ng/ml, 16 hrs
Method: The mouse macrophage cell line RAW 264.7 was cultured in DMEM supplemented with foetal calf serum (FCS), 2 mM glutamine and 50 U/ml penicillin/streptomycin. Cells were treated with either the compounds of the formula (I) (in 0.025% DMSO) or vehicle alone, and added one hour before 50 ng/ml LPS, which induces iNOS and the production of NO. After incubation for 16 hrs, culture media was collected. Nitrite concentration is a quantitative indicator of NO production and was determined by the Griess Reaction. Briefly, 100 μL of Griess reagent was added to 50 μL of each supernatant in duplicate. The absorbance at 550 nm was measured (Molecular Devices, SpectraMax 250 microplate spectrophotometer, CA, USA), and nitrite concentrations were determined against a standard curve of sodium nitrite.

TXA2 = TXA2 synthesis in RAW 264.7 (ELISA); assay type: cell-based, mouse; settings: LPS 50 ng/ml, 16 hrs
Method: The mouse macrophage cell line RAW 264.7 was cultured in DMEM supplemented with foetal calf serum (FCS), 2 mM glutamine and 50 U/ml penicillin/streptomycin. Cells were treated with either test compounds (in 0.025% DMSO) or vehicle alone, and added one hour before 50 ng/ml LPS. After incubation for 16 hrs, culture media was collected for PGE2 or TXB2 measurement by ELISA (Cayman Chemical), and TNFα measurement using an ELISA (Becton Dickinson).

[1] = tested on: splenocytes (T and B cells); experiment: Mitogen-stimulated splenocyte proliferation (MTT); assay type: cell-based, mouse; settings: 10 μM, 3 day incubation, ConA or LPS
Method: Male Skh-1:HR1 (hairless) mice, approximately six weeks old were killed by cervical dislocation. Single cell suspensions were made from the spleen and erythrocytes were lysed in buffer (0.14M NH4Cl, 17 mM Tris, pH 7.2). The remaining splenocytes were cultured in RPMI-1640 (Gibco) supplemented with 10% (v:v) FBS, 200 mM L-glutamine, penicillin/streptomycin and […] 2-mercaptoethanol. Splenocytes were added to quadruplicate wells containing either concanavalin A (ConA, Sigma-Aldrich—0.4 μg/well), LPS (Sigma-Aldrich—1 μg/well) or no mitogen, as well 10 μM of test compound in DMSO. Samples were analysed after a 3 day incubation at 37° C. in 5% CO2 in air. Methylthiazoletetrazolium (MTT) is bioreduced by viable cells into a coloured formazan product that is soluble in DMSO. Thus the quantity of formazan product is directly proportional to the number of living cells in culture, and can be measured using a spectrophotometer at 570 nm. MTT was added to each well, incubated for a further 4 hrs and then colour developed with 0.04N HCl in isopropanol. Culture supernatants were stored after collection at −80° C. and both T and B cells analysed by ELISA (BD Biosciences) for IFN-γ (a Th-1 cytokine) and for T cells alone, IL-6 (a Th-2 cytokine).

5-lipoxygenase (5-LO) = experiment: Synthesis of LTB4 and its metabolites in calcium ionophore-stimulated neutrophils (HPLC); assay type: cell-based, human; settings: for IC50: Neutrophil, human neutrophils, calcium ionophore, read-out: IC50 for the production of LTB4
Method: The pathway for LTB4 synthesis involves initial release of AA from phospholipids by a Ca-dependent PLA2. The free AA is then oxygenated at by 5-LO (requiring enzyme activation by FLAP) to generate an epoxide intermediate (LTA4). LTA4 is then converted to LTB4 by LTA4 hydrolase. LTB4 is metabolised (and deactivated) by a cytochrome P-(CYP) 450 […] to produce 20-hydroxy and 20-carboxy metabolites. These metabolites are also measured in the HPLC assay.
Neutrophils were isolated from citrated human venous blood to >90% purity by centrifugation through Ficoll, dextran sedimentation and lysis of erythrocytes (Boyum 1986). Cells were washed in HEPES buffered Hanks solution (HBHS) and then suspended at 4.5 million cells/mL in HBHS containing 0.1% BSA (HBHS+BSA).
Experiments had been carried out previously to optimise the stimulation of neutrophils by calcium ionophore. At 37° C., 900 μL of cell suspension (4 million cells) was incubated with 3′,7-dihydroxyisoflav-3-ene (or vehicle) in 10 μL DMSO for 5 min before addition of 100 μL of 25 ng/μL calcium ionophore (free acid form, Sigma) with 0.5% DMSO in HBHS containing 0.1% bovine serum albumin (HBHS+BSA). The cells were incubated for 10 min then pelleted by centrifugation at 1200× g at 4° C. for 5 min, and the cell free supernatant used to quantitate the levels of LTB4 and its metabolites.
To each 900 μL aliquot of the supernatant, 25 μL of 2.5 ng/μL prostaglandin B2 (PGB2) in ethanol was added as internal standard. The solution was acidified to […] with 2M formic acid and the mixture extracted with 2 mL ethyl acetate and vigorous vortexing. The organic layer was collected and dried under nitrogen in a glass vial before being reconstituted in 50 μL of the reconstitution solution (water:methanol:acetonitrile at 2:1:1).
Analysis was carried out using a HPLC system with a 125-4 LiChrospher®100 RP-18 (5 μm) column (Agilent Technologies) and a gradient system adapted from a published method (Mita et al. 1988) to separate LTB4, its oxidation products 20-hydroxy LTB4 (20-OH-LTB4) and 20-carboxy LTB4 (20-COOH-LTB4), as well as PGB2. At 1 ml/min flow rate, a combination of three different mobile phase solutions were used. UV absorbance was monitored at 270 nm, and LTB4 and its metabolites were quantitated by comparison of peak areas with that of internal standard and a standard curve prepared earlier.

| Compound | NO (μM) (iNOS; 1 μM) | NO (iNOS; 10 μM) [µM] | TXB2 (TXA2; 1 μM) [pg/mL] | TXB2 (TXA2; 10 μM) [pg/mL] | Effect on splenocyte (T and B cell) numbers [1] | 20-COOH-LTB4, % of maximum release (5-lipoxygenase (5-LO); 0.1 μM) [%] | 20-OH-LTB4, % of maximum release (5-lipoxygenase (5-LO); 0.1 μM) [%] | LTB4, % of maximum release (5-lipoxygenase (5-LO); 0.1 μM) [%] | 20-COOH-LTB4, % of maximum release (5-lipoxygenase (5-LO); 1 μM) [%] | 20-OH-LTB4, % of maximum release (5-lipoxygenase (5-LO); 1 μM) [%] | LTB4, % of maximum release (5-lipoxygenase (5-LO); 1 μM) [%] | 20-COOH-LTB4, % of maximum release (5-lipoxygenase (5-LO); 10 μM) [%] | 20-OH-LTB4, % of maximum release (5-lipoxygenase (5-LO); 10 μM) [%] | LTB4, % of maximum release (5-lipoxygenase (5-LO); 10 μM) [%] | IC50 (5-lipoxygenase (5-LO)) [µM] | NO (iNOS; 1 μM) [µM] |
| --- | --- | --- | --- | --- | --- | --- | --- | --- | --- | --- | --- | --- | --- | --- | --- | --- |
| CN(C)Cc1cc2c(cc1O)OCC(c1ccc(O)cc1)=C2 [Compound (1)] | 17.27 ± 0^ μM | 5.29 ± 0.15 | 1333.17 ± 121.78 | 1149.14 ± 480.27 | markedly and significantly immunosuppressive to T cells and to a lesser extent, B cells | 82.0 | 95.2 | 94.3 | 99.6 | 77.7 | 78.1 | 0.0 | 0.0 | 0.0 | 4.3 |  |
| O=C(O)C1CCCN1Cc1cc2c(cc1O)OCC(c1ccc(O)cc1)=C2 (stereo not drawn) [Compound (3)] |  | 21.79 ± 0.82 | 374.8 ± 132.29 | 287.04 ± 75.58 | little effect on cell numbers | 114.9 | 82.8 | 93.6 | 105.7 | 99.0 | 97.0 | 145.2 | 6.1 | 0.0 | 5.4 | 31.33 ± 0.16 |
